Experimental data published in ChEMBL document CHEMBL4476884, “Thienopyridine carboxamides as ubiquitin-specific protease inhibitors” (2017).
pIC50: −log10 of the molar value.

Experiments:
[1] = biological target: T1, Ubiquitin carboxyl-terminal hydrolase 28 (Homo sapiens, UniProt Q96RU2); test: Inhibition of TEV-cleavable hexa-histidine tagged USP28 (1 to 1077 residues) (unknown origin) using ubiquitin-rhodamine 110 as substrate and measured after 90 mins by fluorescence based assay
T1 sequence (Q96RU2 whole entry): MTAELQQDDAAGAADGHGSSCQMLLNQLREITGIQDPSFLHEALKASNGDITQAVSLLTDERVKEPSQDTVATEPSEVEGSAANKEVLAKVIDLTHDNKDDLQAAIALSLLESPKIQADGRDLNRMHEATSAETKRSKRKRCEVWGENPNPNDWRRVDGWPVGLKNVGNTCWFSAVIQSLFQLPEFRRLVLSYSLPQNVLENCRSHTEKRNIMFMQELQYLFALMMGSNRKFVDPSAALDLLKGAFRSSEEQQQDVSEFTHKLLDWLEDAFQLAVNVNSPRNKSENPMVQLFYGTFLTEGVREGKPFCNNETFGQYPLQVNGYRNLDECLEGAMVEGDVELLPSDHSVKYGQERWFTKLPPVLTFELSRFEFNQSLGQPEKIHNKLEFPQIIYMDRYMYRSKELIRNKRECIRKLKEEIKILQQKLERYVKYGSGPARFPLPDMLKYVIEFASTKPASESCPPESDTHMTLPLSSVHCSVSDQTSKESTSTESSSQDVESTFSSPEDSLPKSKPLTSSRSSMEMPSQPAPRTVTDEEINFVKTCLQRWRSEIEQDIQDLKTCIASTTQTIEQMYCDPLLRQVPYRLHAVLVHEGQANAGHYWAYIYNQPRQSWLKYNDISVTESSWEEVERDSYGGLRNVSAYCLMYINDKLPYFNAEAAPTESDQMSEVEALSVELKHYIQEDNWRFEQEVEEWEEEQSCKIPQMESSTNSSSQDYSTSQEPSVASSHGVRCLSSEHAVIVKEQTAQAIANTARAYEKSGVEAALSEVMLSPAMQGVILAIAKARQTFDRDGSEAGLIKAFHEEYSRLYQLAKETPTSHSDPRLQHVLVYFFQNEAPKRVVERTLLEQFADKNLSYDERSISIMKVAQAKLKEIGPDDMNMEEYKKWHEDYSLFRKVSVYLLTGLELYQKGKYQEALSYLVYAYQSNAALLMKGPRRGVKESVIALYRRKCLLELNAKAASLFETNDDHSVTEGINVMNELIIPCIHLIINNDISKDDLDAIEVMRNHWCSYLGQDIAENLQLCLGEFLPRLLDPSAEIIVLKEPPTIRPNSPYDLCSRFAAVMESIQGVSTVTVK

[2] = biological target: T2, Ubiquitin carboxyl-terminal hydrolase 25 (Homo sapiens, UniProt Q9UHP3); test: Inhibition of recombinant C-terminal 6-His tagged human USP25 using ubiquitin-rhodamine 110 as substrate preincubated for 30 mins followed by substrate addition and measured after 45 mins by fluorescence based assay
T2 sequence (Q9UHP3 whole entry): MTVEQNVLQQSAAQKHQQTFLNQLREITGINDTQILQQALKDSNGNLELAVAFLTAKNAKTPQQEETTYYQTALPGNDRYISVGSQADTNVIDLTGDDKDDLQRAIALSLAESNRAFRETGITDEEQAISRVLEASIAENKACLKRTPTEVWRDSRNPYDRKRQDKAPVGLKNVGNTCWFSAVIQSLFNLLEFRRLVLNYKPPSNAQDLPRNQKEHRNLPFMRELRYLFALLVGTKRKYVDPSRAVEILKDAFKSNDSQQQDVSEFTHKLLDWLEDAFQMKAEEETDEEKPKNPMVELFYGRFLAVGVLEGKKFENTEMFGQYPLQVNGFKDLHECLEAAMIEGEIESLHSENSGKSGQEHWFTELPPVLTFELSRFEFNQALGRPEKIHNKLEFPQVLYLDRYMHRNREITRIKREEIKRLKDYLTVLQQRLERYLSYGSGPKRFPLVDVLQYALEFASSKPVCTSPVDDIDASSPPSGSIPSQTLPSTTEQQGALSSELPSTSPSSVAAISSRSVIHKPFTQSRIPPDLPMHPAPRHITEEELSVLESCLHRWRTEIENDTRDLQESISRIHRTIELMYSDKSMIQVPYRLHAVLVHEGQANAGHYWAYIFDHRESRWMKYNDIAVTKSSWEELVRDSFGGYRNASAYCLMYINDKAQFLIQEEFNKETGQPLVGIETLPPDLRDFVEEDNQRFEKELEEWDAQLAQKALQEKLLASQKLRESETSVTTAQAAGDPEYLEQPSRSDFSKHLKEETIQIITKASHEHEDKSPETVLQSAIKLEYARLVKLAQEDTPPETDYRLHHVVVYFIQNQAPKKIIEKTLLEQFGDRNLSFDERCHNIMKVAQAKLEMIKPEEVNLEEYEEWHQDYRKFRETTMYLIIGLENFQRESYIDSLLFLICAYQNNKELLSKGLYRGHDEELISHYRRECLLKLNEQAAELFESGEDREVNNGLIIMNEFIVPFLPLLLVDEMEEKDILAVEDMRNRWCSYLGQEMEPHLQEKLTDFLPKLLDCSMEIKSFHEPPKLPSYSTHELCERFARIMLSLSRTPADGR

pIC50 [1] | pIC50 [2] | Structure (SMILES)
5.70 to 6.70 |  | Cc1ccc2c(N)c(C(=O)NCCc3ccc(N4CCC5(CCNC5)CC4)cc3)sc2n1
5.70 to 6.70 | 5.00 to 5.70 | Cc1ccc2c(N)c(C(=O)NCCc3ccc(N4CCNCC4)c(-c4ccccc4F)c3)sc2n1
5.70 to 6.70 | 5.00 to 5.70 | Cc1ccc2c(N)c(C(=O)NCCc3ccc(N4CCC5(CCNCC5)C4)cc3)sc2n1
5.00 to 5.70 | 5.00 to 5.70 | Cc1ccc(-c2cc(CCNC(=O)c3sc4nc(C)ccc4c3N)ccc2N2CCNCC2)cc1
5.70 to 6.70 | 5.70 to 6.70 | Cc1ccc2c(N)c(C(=O)NCCc3ccc(N4CCC5(CCCNC5)CC4)cc3)sc2n1
> 6.70 |  | Cc1ccc2c(N)c(C(=O)NCCc3ccc(N4CCNC[C@@H]4C)cc3)sc2n1
4.60 to 5.00 | 5.00 to 5.70 | Cc1cccc(-c2cc(CCNC(=O)c3sc4nc(C)ccc4c3N)ccc2N2CCNCC2)c1
5.00 to 5.70 |  | CC(=O)Nc1ccc2c(N)c(C(=O)NCCc3ccc(N4CCNCC4)cc3)sc2n1
5.00 to 5.70 | 5.00 to 5.70 | Cc1ccc2c(N)c(C(=O)NCCc3ccc(N4CCNCC4)c(-c4cccc(Cl)c4)c3)sc2n1
5.00 to 5.70 | 5.00 to 5.70 | Cc1ccc2c(N)c(C(=O)NCCc3ccc(N4CCNCC4)c(-c4ccc(F)cc4)c3)sc2n1
5.70 to 6.70 |  | Cc1ccc2c(N)c(C(=O)NCCc3ccc(N4CCOC5(CCNCC5)C4)cc3)sc2n1
> 6.70 | 5.70 to 6.70 | Cc1ccc2c(N)c(C(=O)NCCc3ccc(N4CCN[C@H](C(C)C)C4)cc3)sc2n1
> 6.70 | 5.70 to 6.70 | Cc1ccc2c(N)c(C(=O)NCCc3ccc(N4CC5(CCCN5)C4)cc3)sc2n1
5.00 to 5.70 | 4.60 to 5.00 | Cc1cc(-c2cc(CCNC(=O)c3sc4nc(C)ccc4c3N)ccc2N2CCNCC2)ccn1
5.70 to 6.70 | 5.70 to 6.70 | CN[C@H]1CCN(c2ccc(CCNC(=O)c3sc4nc(C)ccc4c3N)cc2)C1
5.70 to 6.70 | 5.00 to 5.70 | Cc1ccc2c(N)c(C(=O)NCCc3ccc(N4CC5(CNC5)C4)cc3)sc2n1
5.70 to 6.70 | 5.70 to 6.70 | Cc1ccc2c(N)c(C(=O)NCCc3ccc(N4CCN[C@@H](C(C)C)C4)cc3)sc2n1
> 6.70 |  | Cc1ccc2c(N)c(C(=O)NCCc3ccc(N[C@@H]4CCNC4)cc3)sc2n1
5.00 to 5.70 | 5.00 to 5.70 | COCCn1cc(-c2cc(CCNC(=O)c3sc4nc(C)ccc4c3N)ccc2N2CCNCC2)cn1
5.00 to 5.70 | 5.00 to 5.70 | Cc1ccc2c(N)c(C(=O)NCCc3ccc(N4CCNCC4)c(-c4ccc(Cl)cc4)c3)sc2n1

pIC50 [1] | pIC50 [2] | Structure (SMILES)
5.70 to 6.70 | 5.70 to 6.70 | Cc1ccc2c(N)c(C(=O)NCCc3ccc(N4CCCC5(CCCNC5)C4)cc3)sc2n1 (centres undefined)
5.70 to 6.70 | 5.70 to 6.70 | Cc1ccc2c(N)c(C(=O)NCCc3ccc(N(C)CC4CCCNC4)cc3)sc2n1 (centres undefined)
> 6.70 | 5.70 to 6.70 | Cc1ccc2c(N)c(C(=O)NCCc3ccc(N4CCCC45CCCNC5)cc3)sc2n1 (centres undefined)
5.70 to 6.70 | 5.70 to 6.70 | Cc1ccc2c(N)c(C(=O)NCCc3ccc(N4CCCC5(CCNC5)C4)cc3)sc2n1 (centres undefined)
5.70 to 6.70 | 5.00 to 5.70 | Cc1ccc2c(N)c(C(=O)NCCc3ccc(N4CCNCC4)c(-c4ccccc4C)c3)sc2n1
> 6.70 | 5.70 to 6.70 | Cc1ccc2c(N)c(C(=O)NCCc3ccc(N4CCC5(CC4)CNC5)cc3)sc2n1
> 6.70 | > 6.70 | Cc1ccc2c(N)c(C(=O)NCCc3ccc(N4CCNC[C@H]4C)cc3)sc2n1
5.70 to 6.70 |  | Cc1ccc2c(N)c(C(=O)NCCc3ccc(N4CC[C@H]5CNC[C@H]5C4)cc3)sc2n1
5.70 to 6.70 |  | CN[C@@H]1CCN(c2ccc(CCNC(=O)c3sc4nc(C)ccc4c3N)cc2)C1
5.70 to 6.70 | 5.70 to 6.70 | Cc1ccc2c(N)c(C(=O)NCCc3ccc(N4CCC(NC5CC5)C4)cc3)sc2n1 (centres undefined)
5.70 to 6.70 | 5.70 to 6.70 | Cc1ccc2c(N)c(C(=O)NCCc3ccc(N4CCNCC4)c(-c4cncnc4)c3)sc2n1
5.00 to 5.70 | 5.00 to 5.70 | Cc1ccc2c(N)c(C(=O)NCCc3ccc(N4CCNCC4)c(-c4cccc(F)c4)c3)sc2n1
5.70 to 6.70 | 5.70 to 6.70 | Cc1ccc2c(N)c(C(=O)NCCc3ccc(N4CCCNCC4)cc3)sc2n1
5.70 to 6.70 |  | CNC1CCN(c2ccc(CCNC(=O)c3sc4nc(C)ccc4c3N)cc2)CC1
5.70 to 6.70 | 5.70 to 6.70 | Cc1ccc2c(N)c(C(=O)NCCc3ccc(N4CCNCC4)c(-c4ccccc4Cl)c3)sc2n1
> 6.70 | 5.70 to 6.70 | Cc1ccc2c(N)c(C(=O)NCCc3ccc(N4CCCC5(CCNCC5)C4)cc3)sc2n1
5.70 to 6.70 | 5.00 to 5.70 | Cc1ccc2c(N)c(C(=O)NCCc3ccc(N4CCNCC4)c(-c4cnn(C)c4)c3)sc2n1
5.70 to 6.70 | 5.70 to 6.70 | Cc1ccc2c(N)c(C(=O)NCCc3ccc(N4C[C@H]5CNC[C@H]5C4)cc3)sc2n1
5.70 to 6.70 | 5.00 to 5.70 | Cc1ccc2c(N)c(C(=O)NCCc3ccc(N4CCC5(CCNC5)C4)cc3)sc2n1 (centres undefined)
5.70 to 6.70 | 5.00 to 5.70 | Cc1ccc2c(N)c(C(=O)NCCc3ccc(N4CCC5(CNCCO5)C4)cc3)sc2n1 (centres undefined)

Structure (SMILES) | pIC50 [1] | pIC50 [2]
Cc1ccc2c(N)c(C(=O)NCCc3ccc(N4CCN[C@H](C)C4)cc3)sc2n1 | > 6.70 | 5.70 to 6.70
